Data: patent US20240148821A1, “PHARMACEUTICAL USE OF CYCLIC PEPTIDE COMPOUND” (CHUGAI SEIYAKU KABUSHIKI KAISHA, priority 2021, published 2024)
Numbered stars: 1 amine (or outer) side, 2 acyl side, 3 side chain; on linkers, the order of the positions; unused ones are H or OH. Bridge positions count the residues as written; N and C are the ends. Square brackets hold non-standard residues; d marks the D form. Peptide text beside a SMILES is read from it. * marks the point of attachment. hPhe(3-Cl-4-CF3) = N[C@@H](CCc1ccc(C(F)(F)F)c(Cl)c1)C(=O)O; hPhe(3-F,4-CF3) = N[C@@H](CCc1ccc(C(F)(F)F)c(F)c1)C(=O)O; NMePhe(4-CF3) = CN[C@@H](Cc1ccc(C(F)(F)F)cc1)C(=O)O; NMePhe(4-Cl) = CN[C@@H](Cc1ccc(Cl)cc1)C(=O)O; NMePhe(4-Me) = CN[C@@H](Cc1ccc(C)cc1)C(=O)O; NMePhe(4-F) = CN[C@@H](Cc1ccc(F)cc1)C(=O)O; NMedβ3hAla = C[C@H](CC(=O)[*:2])N(C)[*:1]; X72 = O=C([C@@H]1Cc2ccccc2N1[*:1])[*:2]; NMeGly(cPent) = CN[C@H](C(=O)O)C1CCCC1; Phe(3-I) = N[C@@H](Cc1cccc(I)c1)C(=O)O; NMeCha = CN[C@@H](CC1CCCCC1)C(=O)O; Pro(4-oxo) = O=C1CN[C@H](C(=O)O)C1; Hyp = O=C(O)[C@@H]1C[C@@H](O)CN1; NEtLeu = CCN[C@@H](CC(C)C)C(=O)O; NMeChg = CN[C@H](C(=O)O)C1CCCCC1; NMeI = CC[C@H](C)[C@H](NC)C(=O)O; NMeD = CN[C@@H](CC(=O)O)C(=O)O; NMeL = CN[C@@H](CC(C)C)C(=O)O; NMeV = CN[C@H](C(=O)O)C(C)C; Azetidin(1-yl) = C1CN(*)C1; NMeS = CN[C@@H](CO)C(=O)O; Morpholide = C1CN(*)CCO1; NMeA = CN[C@@H](C)C(=O)O; NMeAib = CNC(C)(C)C(=O)O; Nle = CCCC[C@H](N)C(=O)O; Piperidide = C1CCN(*)CC1; Pra = C#CC[C@H](N)C(=O)O; dNMeA = CN[C@H](C)C(=O)O; Ac5c = NC1(C(=O)O)CCCC1; Aze = O=C(O)[C@@H]1CCN1; Sar = CNCC(=O)O; Propyl = CCC*

The compounds below were run against protein-protein interaction between Kras and SOS1 (biotin-tagged human Kras loaded with GDP, His-tagged human SOS1) (Homo sapiens (Human), UniProt P01116, G12D) (assay: Protein-protein interaction inhibition between Kras and SOS1 (KrasG12D-SOS PPI) using AlphaScreen). Conditions: AlphaScreen; biotin-tagged human Kras loaded with GDP, His-tagged human SOS1; read-out: KRAS G12D-SOS PPI IC50.
Type: biochemical

Question: How did the IC50 turn out when `CC[C@H](C)[C@@H]1NC(=O)[C@H](CC(C)C)N(CC)C(=O)C[C@@H](C(=O)N2CCC2)N(C)C(=O)[C@H](C2CCCC2)N(C)C(=O)C2(CCCC2)NC(=O)[C@@H]2CCCN2C(=O)[C@H](CCc2ccc(C(F)(F)F)c(Cl)c2)NC(=O)CN(C)C(=O)[C@H](CC2CCCCC2)N(C)C(=O)[C@@H]2CCN2C(=O)[C@H](C)NC1=O` [Compound 1262] ([NEtLeu]IA[Aze][NMeCha][Sar][hPhe(3-Cl-4-CF3)]P[Ac5c][NMeGly(cPent)][NMeD]-{Azetidin(1-yl)}; lactam N-11) was run?
Answer: 0.0013 µM

The compounds below were run on Human pancreatic cancer cell line AsPC-1 (G12D mutation Kras) (assay: AsPC-1 cell growth inhibition (AsPC-1 CGI)). Conditions: read-out: AsPC-1 cell growth inhibition, 50% growth inhibitory concentration (IC50 value); 96 hours, CellTiter-Glo, values classified in ranges.
Type: cell-based
Procedure: Test compounds were serially dilated with dimethyl sulfoxide, and 200 nL was then dispensed to a U-bottom 96-well plate using Labcyte Echo. […] The cell suspension was dispensed to a. plate containing a test compound at 100 μL per well and incubated at 37° C. in a 5% carbon dioxide gas incubator. 96 hours later, 80 μL of CellTiter-Glo (Promega) was added to each well and fluorescence was measured.

Question: `CC[C@H](C)[C@@H]1NC(=O)[C@H](CC(C)C)N(C)C(=O)C[C@@H](C)N(C)C(=O)[C@H](CC(C)C)NC(=O)C(C)(C)N(C)C(=O)[C@H](CC(C)C)NC(=O)[C@H](CCc2ccc(C(F)(F)F)c(F)c2)NC(=O)CN(C)C(=O)[C@H](CC2CCCCC2)N(C)C(=O)[C@@H]2CCN2C(=O)CN(C)C1=O` [Compound 178] (cyclo([Aze][NMeCha][Sar][hPhe(3-F,4-CF3)]L[NMeAib]L[NMedβ3hAla][NMeL]I[Sar])) was tested. Which IC50 did it give?
Answer: > 0.5 µM

Question: For `CC[C@H](C)[C@@H]1NC(=O)[C@H](C)N(C)C(=O)C[C@@H](C(=O)N2CCCCC2)N(C)C(=O)[C@H](C(C)C)N(C)C(=O)C2(CCCC2)NC(=O)[C@@H]2CCCN2C(=O)[C@H](CCc2ccc(C(F)(F)F)c(Cl)c2)NC(=O)[C@@H](C)N(C)C(=O)[C@H](Cc2ccc(F)cc2)N(C)C(=O)CN(C)C(=O)CN(C)C1=O` [Compound 1755] ([NMeA]I[Sar][Sar][NMePhe(4-F)][dNMeA][hPhe(3-Cl-4-CF3)]P[Ac5c][NMeV][NMeD]-Piperidide; lactam N-11), which IC50 is on record?
Answer: > 0.5 µM

Question: How did the IC50 turn out when `CCCOC[C@H]1C(=O)N(C)[C@H](C(=O)N2CCCCC2)CC(=O)N(C)[C@@H](CC(C)C)C(=O)N[C@@H]([C@@H](C)CC)C(=O)N(C)CC(=O)N(C)CC(=O)N(C)[C@@H](CC2CCCCC2)C(=O)N(C)CC(=O)N[C@@H](CCc2ccc(C(F)(F)F)c(Cl)c2)C(=O)N2CCC[C@H]2C(=O)NC2(CCCC2)C(=O)N1C` [Compound 1771] ([NMeL]I[Sar][Sar][NMeCha][Sar][hPhe(3-Cl-4-CF3)]P[Ac5c][NMeS](Propyl)[NMeD]-Piperidide; lactam N-11) was run?
Answer: > 0.5 µM

Question: For `CCO[C@@H]1C[C@H]2C(=O)NC3(CCCC3)C(=O)N(C)[C@@H]([C@@H](C)CC)C(=O)N(C)[C@H](C(=O)N3CCOCC3)CC(=O)N(C)[C@@H](CC(C)C)C(=O)N[C@@H]([C@@H](C)CC)C(=O)N(C)[C@@H](C)C(=O)N3CC[C@H]3C(=O)N(C)[C@@H](Cc3ccc(C(F)(F)F)cc3)C(=O)N(C)CC(=O)N[C@@H](CCc3ccc(C(F)(F)F)c(Cl)c3)C(=O)N2C1` [Compound 1330] ([NMeL]I[NMeA][Aze][NMePhe(4-CF3)][Sar][hPhe(3-Cl-4-CF3)][Hyp](Et)[Ac5c][NMeI][NMeD]-Morpholide; lactam N-11), which IC50 is on record?
Answer: ≤ 0.02 µM

Question: How did the IC50 turn out when `CCCC[C@@H]1NC(=O)[C@H](Cc2cccc(I)c2)NC(=O)CN(C)C(=O)[C@H](Cc2ccc(Cl)cc2)N(C)C(=O)CN(C)C(=O)CN(C)C(=O)[C@H]([C@@H](C)CC)NC(=O)[C@H](CC(C)C)N(C)C(=O)C[C@@H](C(=O)N2CCCCC2)N(C)C(=O)[C@H](CC(C)C)NC(=O)[C@H](Cc2ccc(C)cc2)N(C)C1=O` [Compound 876] ([NMeL]I[Sar][Sar][NMePhe(4-Cl)][Sar][Phe(3-I)][Nle][NMePhe(4-Me)]L[NMeD]-Piperidide; lactam N-11) was run?
Answer: > 0.5 µM

Question: How did the IC50 turn out when `CC[C@H](C)[C@@H]1NC(=O)[C@H](CC(C)C)N(C)C(=O)C[C@@H](C(=O)N2CCCCC2)N(C)C(=O)[C@H](C2CCCCC2)N(C)C(=O)C2(CCCC2)NC(=O)[C@@H]2Cc3ccccc3N2C(=O)[C@H](CCc2ccc(C(F)(F)F)c(Cl)c2)NC(=O)CN(C)C(=O)[C@H](CC2CCCCC2)N(C)C(=O)[C@@H]2CCN2C(=O)CN(C)C1=O` [Compound 725] ([NMeL]I[Sar][Aze][NMeCha][Sar][hPhe(3-Cl-4-CF3)][X72][Ac5c][NMeChg][NMeD]-Piperidide; lactam N-11) was run?
Answer: > 0.5 µM

Question: Which IC50 does the source give for `C#CC[C@@H]1NC(=O)[C@H](Cc2cccc(I)c2)NC(=O)CN(C)C(=O)[C@H](Cc2ccc(F)cc2)N(C)C(=O)[C@@H]2CCN2C(=O)[C@H](C)N(C)C(=O)[C@H]([C@@H](C)CC)NC(=O)[C@H](CC(C)C)N(C)C(=O)C[C@@H](C(=O)N2CCCCC2)N(C)C(=O)[C@H](CC(C)C)NC(=O)C(C)(C)N(C)C1=O` [Compound 1230] ([NMeL]I[NMeA][Aze][NMePhe(4-F)][Sar][Phe(3-I)][Pra][NMeAib]L[NMeD]-Piperidide; lactam N-11) here?
Answer: > 0.5 µM

Question: With `CC[C@H](C)[C@@H]1NC(=O)[C@H](CC(C)C)N(C)C(=O)C[C@@H](C(=O)N2CCCCC2)N(C)C(=O)[C@H](C(C)C)N(C)C(=O)C2(CCCC2)NC(=O)[C@@H]2CC(=O)CN2C(=O)[C@H](CCc2ccc(C(F)(F)F)c(Cl)c2)NC(=O)CN(C)C(=O)[C@H](CC2CCCCC2)N(C)C(=O)[C@@H]2CCN2C(=O)[C@H](C)N(C)C1=O` [Compound 1819] ([NMeL]I[NMeA][Aze][NMeCha][Sar][hPhe(3-Cl-4-CF3)][Pro(4-oxo)][Ac5c][NMeV][NMeD]-Piperidide; lactam N-11) as the compound, how does the IC50 read?
Answer: > 0.5 µM
